Measured values taken from patent US9408871B2, “Methods for inhibiting complement activation and uses thereof” (THE UNIVERSITY OF BRITISH COLUMBIA, priority 2013, dated 2016).

Key:
[1] = test system: terminal pathway (TP) of complement; assay: serum-based terminal pathway (TP) hemolytic assay (2% NHS, C5b,6, chicken erythrocytes); assay type: cell-based, human; conditions: 100 μM (based on the monomeric form)
Text: Erythrocyte lysis assays were used to measure complement-mediated hemolytic activity. Erythrocyte (RBC) lysis assays as previously described^18,37 were used to measure complement activity. For alternative pathway assays and for total hemolytic activity assays, unsensitized rabbit erythrocytes were used. Chicken erythrocytes were used for the terminal pathway assays.
Erythrocytes were washed three times in GVB with the reaction buffers as indicated, and counted using the Advia 120 Hematology System from Siemens (Siemens, Erlangen, Germany). Reactions in 300 μL were allowed to proceed for 30 min at 37° C., after which unlysed cells were pelleted by centrifugation at 600×g. Erythrocyte lysis, reflected by the released hemoglobin in the supernatant, was quantified by measuring the absorbance at 405 nm using the Mithras LB 940 microplate reader from Berthold Technologies (Bad Wildbad, Germany). Percent lysis was determined relative to the control of 100% lysis with H2O. For total hemolytic and terminal pathway (TP) assays, the concentrations of NHS and C5b,6 to initiate complement activation were established from pilot studies to obtain ˜70-80% erythrocyte lysis at 30 min.
For serum-based terminal pathway (TP) hemolytic assays, components were diluted in GVB containing 10 mM EDTA (GVB-E), the latter added to prevent upstream complement activation and generation of endogenous C5b,6. 2% NHS was used as the source of C7, C8, and C9, and hemolysis of chicken erythrocytes (cRBC) (3.3×10^8 cells/mL) was initiated by addition of exogenous purified C5b,6, the concentration of which was determined from pilot studies to yield ˜70-80% lysis at 30 min. No C5b,6 activity was detected in the NHS prior to initiating the reaction. For some experiments, instead of NHS, purified terminal pathway complement components were used in the TP assays. In these assays, in a final volume of 300 uL GVB, lysis was achieved by the sequential addition of the following components: cRBC (3.3×10^8 cells/mL), C5b,6 (20 μM), C7 (15 nM), C8 (10 nM), and C9 (25 nM). The unlysed cell pellet was removed by centrifugation and lysis was measured immediately after the 30-minute reaction. A standard curve for the terminal pathway assay using serum as the source of complement (FIG. 2) was generated using a fixed serum concentration at 2%, and increasing concentrations of purified C5b,6 dose-dependently lysed chicken erythrocytes after 30 min at 37° C. […] of purified C5b,6 was therefore used to fix baseline lysis at ˜80% to allow assessment of the inhibitory effects of polyphosphate in serum.
TP activity in NHS(2%), measured by lysis of cRBC, was initiated by adding a limiting amount of exogenous purified C5b,6 (250 pM) to achieve 70-80% lysis after 30 min. A molar excess of EDTA was used to prevent upstream activation of complement and generation of endogenous C5b,6. In the absence of C5b,6, there was no detectable complement-mediated cRBC lysis. P1 at concentrations ranging from 0.1 to 1000 μM, had no effect on complement-mediated hemolysis in NHS via the TP (FIG. 5A). By contrast, polyphosphate>1000 inhibited the TP in serum in a concentration-dependent manner, with an IC50 of ˜10 μM polyphosphate>1000 (dotted lines) (calculated based on monomeric phosphate).

[2] = molecular target: T1, C1-esterase inhibitor (C1-inh) (Homo sapiens, UniProt P05155); assay: C1s-mediated cleavage of C4 in the presence of C1-inh (SDS-PAGE); assay type: biochemical; conditions: 10-500 μM, 2.5 nM C1-inh
T1 sequence (P05155 23-500): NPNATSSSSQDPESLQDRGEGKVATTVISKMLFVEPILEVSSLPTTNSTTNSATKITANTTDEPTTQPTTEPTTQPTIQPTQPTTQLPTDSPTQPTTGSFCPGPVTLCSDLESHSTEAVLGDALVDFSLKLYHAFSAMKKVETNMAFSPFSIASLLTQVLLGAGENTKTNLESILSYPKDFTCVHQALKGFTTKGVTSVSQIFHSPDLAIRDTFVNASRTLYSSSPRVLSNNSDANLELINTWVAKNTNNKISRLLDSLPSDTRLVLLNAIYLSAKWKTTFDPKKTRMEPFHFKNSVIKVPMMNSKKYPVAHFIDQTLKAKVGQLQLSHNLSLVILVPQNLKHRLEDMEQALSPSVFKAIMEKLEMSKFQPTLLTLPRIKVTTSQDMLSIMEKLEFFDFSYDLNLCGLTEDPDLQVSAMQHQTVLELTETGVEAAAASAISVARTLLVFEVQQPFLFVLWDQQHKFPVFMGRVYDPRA
Method: We tested whether polyP affects the inhibitory properties of C1-inh on C1s-mediated cleavage and activation of complement factor C4 and C2. SDS-PAGE followed by coomassie staining of gels was used to monitor cleavage of C4 by C1s in the presence/absence of C1-inh and/or polyP in a purified system.
2.5 nM C1s (reaction 1) or 2.5 nM C1-inh (reaction 2), and 300 μM polyP were incubated in 20 mM Hepes, 0.15 M NaCl, pH 7.5, 0.01% Tween buffer for 90 minutes at 37° C. 2.5 nM C1-inh (reaction 1) or 0.5 nM C1s (reaction 2) was added and incubated for 30 minutes at 37° C. 1.5 μM C4 was added and incubated for 5 minutes at 37° C. The reactions were quenched with 5× loading buffer and β-ME. Samples were taken and run on an SDS-PAGE 8% gel (FIG. 15B).
Briefly, 2.5 nM C1s with 5-300 μM of polyP130 (reaction 1; FIG. 16A) or polyP1000 (reaction 2; FIG. 16B) were incubated in 20 mM Hepes, 0.15 M NaCl, pH 7.5, 0.01% Tween buffer for 90 minutes at 37° C. 2.5 nM C1s was added and incubated for 30 minutes at 37° C. 1.5 μM C4 was added and incubated for 5 minutes at 37° C. The reactions were quenched with 5× loading buffer and β-ME.
Briefly, 2.5 nM C1s with 10-500 μM of polyP14, polyP60, polyP130, polyP1000 were incubated in 20 mM Hepes, 0.15 M NaCl, pH 7.5, 0.01% Tween buffer for 90 minutes at 37° C. 2.5 nM C1s was added and incubated for 30 minutes at 37° C. […]

Row | SMILES | effect on TP hemolytic activity at equivalent concentration [1] | effect of polyP size on C1-inh (C4 cleavage by C1s) [2]
1 | O=P([O-])([O-])OP(=O)([O-])[O-].[Na+].[Na+].[Na+].[Na+] [P2, diphosphate (Na4P2O7)] | had no effect | had no effect on C1-inh
2 | O=P([O-])([O-])OP(=O)([O-])OP(=O)([O-])[O-].[Na+].[Na+].[Na+].[Na+].[Na+] [P3, triphosphate (Na5P3O10)] | had no effect | had no effect on C1-inh
